One may read the Ki as the equilibrium dissociation constant of an inhibitor or competing ligand from its target. A higher Ki goes with lower affinity.

The target of one assay is T1, human H3 receptor (SK-N-MC cells) (Homo sapiens, UniProt Q9Y5N1).
T1 construct: expressed in transfected cells; host or cells: SK-N-MC sublines with CRE-beta-galactosidase reporter
T1 sequence (Q9Y5N1 whole entry): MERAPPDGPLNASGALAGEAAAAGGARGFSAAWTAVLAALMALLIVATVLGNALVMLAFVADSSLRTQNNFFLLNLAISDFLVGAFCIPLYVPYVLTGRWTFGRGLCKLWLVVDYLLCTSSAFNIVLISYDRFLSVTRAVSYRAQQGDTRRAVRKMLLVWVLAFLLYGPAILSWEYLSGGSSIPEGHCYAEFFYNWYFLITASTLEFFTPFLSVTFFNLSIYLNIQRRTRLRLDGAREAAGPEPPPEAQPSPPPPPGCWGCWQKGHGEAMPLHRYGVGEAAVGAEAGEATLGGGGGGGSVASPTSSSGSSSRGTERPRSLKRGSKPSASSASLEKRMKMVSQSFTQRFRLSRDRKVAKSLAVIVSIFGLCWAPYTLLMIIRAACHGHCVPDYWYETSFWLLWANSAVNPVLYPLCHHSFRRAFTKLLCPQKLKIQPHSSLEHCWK
The assay is described as follows: Cyclic AMP accumulation (β-galactosidase reporter, Schild analysis vs histamine). The note with it: read-out: H3 pA2 (converted). The class given is cell-based.
Experimental: The reporter gene (β-galactosidase) is under the control of multiple cyclic AMP responsive elements. In 96-well plates, histamine was added directly to the cell media followed 5 min later by an addition of forskolin (5 μM final concentration). When appropriate, antagonists were added 10 min prior to agonist addition. After a 6-h incubation at 37° C., the media was aspirated and the cells washed with 200 μL of phosphate-buffered saline followed by a second aspiration. Cells were lysed with 25 μL 0.1× assay buffer (10 mM Na-phosphate, pH 8, 0.2 mM MgSO4, 0.01 mM MnCl2) and incubated at rt for 10 min. Cells were then incubated for 10 min with 100 μL of 1× assay buffer containing 0.5% Triton and 40 mM β-mercaptoethanol. Color was developed using 25 μL of 1 mg/mL substrate solution (chlorophenolred β-D galactopyranoside; Roche Molecular Biochemicals, Indianapolis, Ind.).
On to `O=[N+]([O-])c1cccc([C@@H]2CN3CCC[C@H]3c3cc(OCCCN4CCCCC4)ccc32)c1` (relative stereo) [Example 4B, Trans-6-(3-Nitro-phenyl)-9-(3-piperidin-1-yl-propoxy)-1,2,3,5,6,10b-hexahydro-pyrrolo[2,1-a]isoquinoline], for which the Kb is 0.158 nM.

For `FC(F)(F)c1ccc([C@@H]2CN3CCC[C@H]3c3cc(OCCCN4CCCCC4)ccc32)cc1` (relative stereo) [Example 7B, Trans-9-(3-Piperidin-1-yl-propoxy)-6-(4-trifluoromethyl-phenyl)-1,2,3,5,6,10b-hexahydro-pyrrolo[2,1-a]isoquinoline], the Kb is 6.31 nM.

In the next assay the target is T2, cloned human H3 receptor, stably expressed in SK-N-MC cells (Homo sapiens, UniProt Q9Y5N1).
T2 construct: expressed in transfected cells
T2 sequence (Q9Y5N1 whole entry): as above
The assay is described as follows: H3 receptor binding (N-[3H]-α-methylhistamine displacement). Conditions: SK-N-MC membranes, 0.8 nM N-[3H]-α-methylhistamine.
`COc1ccc([C@@H]2CN3CCC[C@H]3c3cc(OCCCN4CCOCC4)ccc32)cc1` (racemic) [Example 93] registered a Ki of 5 nM.

As to `O=[N+]([O-])c1ccc([C@@H]2CN3CCC[C@H]3c3cccc(OCCCN4CCCCC4)c32)cc1` (relative stereo) [Example 2C, Trans-6-(4-Nitro-phenyl)-7-(3-piperidin-1-yl-propoxy)-1,2,3,5,6,10b-hexahydro-pyrrolo[2,1-a]isoquinoline], the affinity corresponds to a Ki of 29 nM.

Consider `O=[N+]([O-])c1cccc([C@@H]2CN3CCC[C@H]3c3cc(OCCCN4CCCCC4)ccc32)c1` (relative stereo) [Example 4B, Trans-6-(3-Nitro-phenyl)-9-(3-piperidin-1-yl-propoxy)-1,2,3,5,6,10b-hexahydro-pyrrolo[2,1-a]isoquinoline], for which the Ki amounted to 1 nM.

`O=[N+]([O-])c1cccc([C@H]2CN3CCC[C@H]3c3cccc(OCCCN4CCCCC4)c32)c1` (relative stereo) [Example 4C, Cis-6-(3-Nitro-phenyl)-7-(3-piperidin-1-yl-propoxy)-1,2,3,5,6,10b-hexahydro-pyrrolo[2,1-a]isoquinoline] had a Ki of 98 nM.

Turning to `Cc1ccc([C@@H]2CN3CCC[C@H]3c3cc(OCCCN4CCCCC4)ccc32)cc1` (relative stereo) [Example 5B, Trans-9-(3-Piperidine-1-yl-propoxy)-6-p-tolyl-1,2,3,5,6,10b-hexahydro-pyrrolo[2,1-a]isoquinoline], the Ki was determined as 1 nM.

Take `Cc1ccc([C@@H]2CN3CCC[C@H]3c3cccc(OCCCN4CCCCC4)c32)cc1` (relative stereo) [Example 5C, Trans-7-(3-Piperidine-1-yl-propoxy)-6-p-tolyl-1,2,3,5,6,10b-hexahydro-pyrrolo[2,1-a]isoquinoline]: the inhibition constant (Ki) is 85 nM.

In turn, `Clc1ccc([C@H]2CN3CCC[C@H]3c3cc(OCCCN4CCCCC4)ccc32)cc1Cl` (relative stereo) [Example 6B, Trans-6-(3,4-Dichloro-phenyl)-9-(3-piperidin-1-yl-propoxy)-1,2,3,5,6,10b-hexahydro-pyrrolo[2,1-a]isoquinoline] had a Ki of 1 nM.

The compound `Clc1ccc([C@H]2CN3CCC[C@H]3c3cccc(OCCCN4CCCCC4)c32)cc1Cl` (relative stereo) [Example 6C] yielded a Ki of 76 nM.

For `FC(F)(F)c1ccc([C@@H]2CN3CCC[C@H]3c3cc(OCCCN4CCCCC4)ccc32)cc1` (relative stereo) [Example 7B, Trans-9-(3-Piperidin-1-yl-propoxy)-6-(4-trifluoromethyl-phenyl)-1,2,3,5,6,10b-hexahydro-pyrrolo[2,1-a]isoquinoline], the Ki worked out at 2 nM.

`Clc1ccccc1[C@@H]1CN2CCC[C@H]2c2cccc(OCCCN3CCCCC3)c21` (relative stereo) [Example 12C, Cis-6-(2-Chloro-phenyl)-7-(3-piperidin-1-yl-propoxy)-1,2,3,5,6,10b-hexahydro-pyrrolo[2,1-a]isoquinoline] yielded a Ki of 91 nM.

As for `Clc1ccccc1[C@H]1CN2CCC[C@H]2c2cccc(OCCCN3CCCCC3)c21` (relative stereo) [Example 12D, Trans-6-(2-Chloro-phenyl)-7-(3-piperidin-1-yl-propoxy)-1,2,3,5,6,10b-hexahydro-pyrrolo[2,1-a]isoquinoline], the Ki was 74 nM.

The compound `Fc1ccc([C@@H]2CN3CCC[C@H]3c3cccc(OCCCN4CCCCC4)c32)cc1` (relative stereo) [Example 14C] registered an inhibition constant Ki of 200 nM.

As to `c1cc([C@@H]2CN3CCC[C@H]3c3cc(OCCCN4CCCCC4)ccc32)ccn1` (relative stereo) [Example 27A, Cis-9-(3-Piperidin-1-yl-propoxy)-6-pyridin-4-yl-1,2,3,5,6,10b-hexahydro-pyrrolo[2,1-a]isoquinoline], the Ki came to 1 nM.

For `c1cc([C@H]2CN3CCC[C@H]3c3cc(OCCCN4CCCCC4)ccc32)ccn1` (relative stereo) [Example 27B, Trans-9-(3-Piperidin-1-yl-propoxy)-6-pyridin-4-yl-1,2,3,5,6,10b-hexahydro-pyrrolo[2,1-a]isoquinoline], the Ki came to 0.3 nM.

Take `CSc1ccc([C@@H]2CN3CCC[C@H]3c3cc(OCCCN4CCCCC4)ccc32)cc1` (relative stereo) [Example 39B, Trans-6-(4-Methylsulfanyl-phenyl)-9-(3-piperidin-1-yl-propoxy)-1,2,3,5,6,10b-hexahydro-pyrrolo[2,1-a]isoquinoline]: the Ki was 1 nM.

As for `Brc1ccc([C@H]2CN3CCC[C@H]3c3ccc(OCCCN4CCCCC4)cc32)cc1` (relative stereo) [Example 42, Trans-6-(4-Bromo-phenyl)-8-(3-piperidin-1-yl-propoxy)-1,2,3,5,6,10b-hexahydro-pyrrolo[2,1-a]isoquinoline], affinity was put at a Ki of 2 nM.

`N#Cc1ccc([C@H]2CN3CCC[C@H]3c3ccc(OCCCN4CCCCC4)cc32)cc1` (relative stereo) [Example 43] came in with a Ki of 30 nM.

`c1ccc([C@@H]2CN3CCC[C@H]3c3ccc(OCCCN4CCCCC4)cc32)cc1` (relative stereo) [Example 44] returned a Ki of 1 nM.

`c1ccc([C@H]2CN3CCC[C@H]3c3ccc(OCCCN4CCCCC4)cc32)cc1` (relative stereo) [Example 45]: the affinity corresponds to a Ki of 16 nM.

`c1cn(-c2ccc([C@@H]3CN4CCC[C@H]4c4cc(OCCCN5CCOCC5)ccc43)cc2)cn1` (relative stereo) [Example 48A, Cis-6-(4-Imidazol-1-yl-phenyl)-9-(3-morpholin-4-yl-propoxy)-1,2,3,5,6,10b-hexahydro-pyrrolo[2,1-a]isoquinoline] displayed a Ki of 6 nM.

On to `c1cn(-c2ccc([C@H]3CN4CCC[C@H]4c4cc(OCCCN5CCOCC5)ccc43)cc2)cn1` (relative stereo) [Example 48B, Trans-6-(4-Imidazol-1-yl-phenyl)-9-(3-morpholin-4-yl-propoxy)-1,2,3,5,6,10b-hexahydro-pyrrolo[2,1-a]isoquinoline], for which affinity was put at a Ki of 5 nM.

For the compound `c1cnn(-c2ccc([C@H]3CN4CCC[C@H]4c4cc(OCCCN5CCOCC5)ccc43)cc2)c1` (relative stereo) [Example 49], the affinity, expressed as Ki, was 5 nM.

In turn, `c1cnc([C@@H]2CN3CCC[C@H]3c3cc(OCCCN4CCOCC4)ccc32)cn1` (relative stereo) [Example 50A, Cis-9-(3-Morpholin-4-yl-propoxy)-6-pyrazin-2-yl-1,2,3,5,6,10b-hexahydro-pyrrolo[2,1-a]isoquinoline] yielded a Ki of 4 nM.

On to `c1cnc([C@H]2CN3CCC[C@H]3c3cc(OCCCN4CCOCC4)ccc32)cn1` (relative stereo) [Example 50B, Trans-9-(3-Morpholin-4-yl-propoxy)-6-pyrazin-2-yl-1,2,3,5,6,10b-hexahydro-pyrrolo[2,1-a]isoquinoline], for which the Ki was found to be 181 nM.

`Oc1ccc([C@@H]2CN3CCC[C@H]3c3cc(OCCCN4CCOCC4)ccc32)cn1` (relative stereo) [Example 51A, Cis-5-[9-(3-Morpholin-4-yl-propoxy)-1,2,3,5,6,10b-hexahydro-pyrrolo[2,1-a]isoquinolin-6-yl]-pyridin-2-ol] had a Ki of 3 nM.

For the compound `Oc1ccc([C@H]2CN3CCC[C@H]3c3cc(OCCCN4CCOCC4)ccc32)cn1` (relative stereo) [Example 51B, Trans-5-[9-(3-Morpholin-4-yl-propoxy)-1,2,3,5,6,10b-hexahydro-pyrrolo[2,1-a]isoquinolin-6-yl]-pyridin-2-ol], the Ki is 5 nM.

With `c1ncc([C@H]2CN3CCC[C@H]3c3cc(OCCCN4CCOCC4)ccc32)s1` (relative stereo) [Example 52], the Ki was 4 nM.

For `c1csc([C@H]2CN3CCC[C@H]3c3cc(OCCCN4CCOCC4)ccc32)n1` (relative stereo) [Example 53], the Ki amounted to 3 nM.

As to `c1cc([C@H]2CN3CCC[C@H]3c3cc(OCCCN4CCOCC4)ccc32)[nH]n1` (relative stereo) [Example 54], the Ki was 4 nM.

Take `c1ccn2c([C@H]3CN4CCC[C@H]4c4cc(OCCCN5CCOCC5)ccc43)cnc2c1` (relative stereo) [Example 55]: the affinity corresponds to a Ki of 2 nM.

`c1cc([C@H]2CN3CCC[C@H]3c3cc(OCCCN4CCOCC4)ccc32)cs1` (relative stereo) [Example 56]: affinity was put at a Ki of 3 nM.

The compound `N#Cc1cccc([C@H]2CN3CCC[C@H]3c3cc(OCCCN4CCOCC4)ccc32)c1` (relative stereo) [Example 58] showed a Ki of 2 nM.

Consider `c1cncc([C@H]2CN3CCC[C@H]3c3cc(OCCCN4CCOCC4)ccc32)c1` (relative stereo) [Example 59], for which affinity was put at a Ki of 2 nM.

The compound `c1ccc([C@H]2CN3CCC[C@H]3c3cc(OCCCN4CCOCC4)ccc32)nc1` (relative stereo) [Example 60] showed a Ki of 3 nM.

`FC(F)(F)Sc1ccc([C@H]2CN3CCC[C@H]3c3cc(OCCCN4CCOCC4)ccc32)cc1` (relative stereo) [Example 61] had a Ki of 29 nM.

In turn, `FC(F)(F)Sc1cccc([C@H]2CN3CCC[C@H]3c3cc(OCCCN4CCOCC4)ccc32)c1` (relative stereo) [Example 62] showed a Ki of 6 nM.

`CSc1ccc([C@H]2CN3CCC[C@H]3c3cc(OCCCN4CCOCC4)ccc32)cc1` (relative stereo) [Example 63]: the affinity, expressed as Ki, was 16 nM.

The compound `COc1ccc([C@H]2CN3CCC[C@H]3c3cc(OCCCN4CCOCC4)ccc32)cc1Cl` (relative stereo) [Example 64] had a Ki of 3 nM.

For the compound `COc1ccc([C@H]2CN3CCC[C@H]3c3cc(OCCCN4CCOCC4)ccc32)cc1F` (relative stereo) [Example 65], the affinity, expressed as Ki, was 4 nM.

`Clc1ccc([C@H]2CN3CCC[C@H]3c3cc(OCCCN4CCCCC4)ccc32)cc1` (relative stereo) [Example 66B, Trans-6-(4-chloro-phenyl)-9-(3-piperidin-1-yl-propoxy)-1,2,3,5,6,10b-hexahydro-pyrrolo[2,1-a]isoquinoline] yielded a Ki of 1 nM.
